How the values were obtained:
Zymoseptoria tritici = assay: Test A: test solution sprayed on wheat seedlings, inoculated next day with Zymoseptoria tritici (wheat leaf blotch); disease rating (100 = 100% disease control, 0 = no control; dash = not tested); type: in vivo
Outline: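 Wheat seedlings sprayed to run-off with test solution, inoculated next day with Z. tritici spores, held 48 h at 24° C in saturated atmosphere, then 17 days at 20° C before rating. Scores are % disease control relative to controls (100 = full control, 0 = none).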

[1] = system: Puccinia recondita f. sp. tritici; assay: Test B: test solution sprayed on wheat seedlings, inoculated next day with Puccinia recondita f. sp. tritici (wheat leaf rust); disease rating (100 = 100% disease control, 0 = no control; dash = not tested); type: in vivo
Source text: The resulting test suspensions were then used in Tests A-F. The test solution was sprayed to the point of run-off on wheat seedlings. […] A rating of 100 indicates 100% disease control and a rating of 0 indicates no disease control (relative to the controls). A dash (—) indicates the compound was not tested.

[2] = system: Blumeria graminis f. sp. tritici; assay: Test C: test suspension sprayed on wheat seedlings, inoculated next day with Blumeria graminis f. sp. tritici (wheat powdery mildew); visual disease rating (100 = 100% disease control, 0 = no control; dash = not tested); type: in vivo
Outline: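 Wheat seedlings were sprayed to run-off with test suspension, then dusted next day with Blumeria graminis f. sp. tritici spores. After 8 days at 20 °C in a growth chamber, disease was rated visually as percent control relative to untreated controls.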

Phakopsora pachyrhizi = assay: Test D: test solution sprayed on soybean seedlings, inoculated next day with Phakopsora pachyrhizi (Asian soybean rust); visual disease rating (100 = 100% disease control, 0 = no control; dash = not tested); type: in vivo
Outline: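 Compounds predissolved in acetone (3% of final volume), suspended at ppm concentrations in 50/50 acetone/water with 250 ppm PEG400, sprayed to run-off on soybean seedlings. Inoculated next day with spores, 24 h saturated atmosphere at 22 °C, then 8 days growth chamber at 22 °C; visual rating, 100 = full control.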

Botrytis cinerea = assay: Test E: test suspension sprayed on tomato seedlings, inoculated next day with Botrytis cinerea (tomato Botrytis); visual disease rating (100 = 100% disease control, 0 = no control; dash = not tested); type: in vivo
Outline: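 Tomato seedlings were sprayed to run-off and inoculated next day with Botrytis cinerea spores. They were held 48 h at 20° C in saturated humidity, then 3 days at 24° C. Disease control was rated visually against controls (100 = full, 0 = none).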

Alternaria solani = assay: Test F: test suspension sprayed on tomato seedlings, inoculated next day with Alternaria solani (tomato early blight); visual disease rating (100 = 100% disease control, 0 = no control; dash = not tested); type: in vivo
Outline: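 Tomato seedlings sprayed to run-off with test suspension, inoculated next day with A. solani spores, held saturated at 27° C. for 48 h, then 20° C. for 3 days. Disease visually rated as % control relative to untreated controls.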

SMILES	Test A disease control rating (Zymoseptoria tritici; 50 ppm)	Test B disease control rating ([1]; 50 ppm)	Test C disease control rating ([2]; 50 ppm)	Test D disease control rating (Phakopsora pachyrhizi; 50 ppm)	Test E disease control rating (Botrytis cinerea; 50 ppm)	Test F disease control rating (Alternaria solani; 50 ppm)	also measured
Cn1nc(-c2ccc(F)cc2Cl)c(-c2ccc(F)cc2Cl)c(C#N)c1=O [Compound 6, 5,6-bis(2-chloro-4-fluorophenyl)-2,3-dihydro-2-methyl-3-oxo-4-pyridazine-carbonitrile]							pest or weed control at 250 ppm (Zymoseptoria tritici; 250 ppm): 100%; pest or weed control at 250 ppm ([1]; 250 ppm): 100%; pest or weed control at 250 ppm ([2]; 250 ppm): 92%; pest or weed control at 250 ppm (Phakopsora pachyrhizi; 250 ppm): 0%; pest or weed control at 250 ppm (Botrytis cinerea; 250 ppm): 99%; pest or weed control at 250 ppm (Alternaria solani; 250 ppm): 99%; melting point: 137 to 140 °C
COc1cc(OC)c(Cl)c(-c2nn(C)c(=O)cc2-c2c(F)cccc2F)c1 [Compound 12, 6-(2-chloro-3,5-dimethoxyphenyl)-5-(2,6-difluorophenyl)-2-methyl-3(2H)-pyridazinone]							pest or weed control at 250 ppm (Zymoseptoria tritici; 250 ppm): 100%; pest or weed control at 250 ppm ([1]; 250 ppm): 100%; pest or weed control at 250 ppm ([2]; 250 ppm): 100%; pest or weed control at 250 ppm (Phakopsora pachyrhizi; 250 ppm): 100%; pest or weed control at 250 ppm (Botrytis cinerea; 250 ppm): 99%; pest or weed control at 250 ppm (Alternaria solani; 250 ppm): 0%; melting point: 172 to 176 °C
COc1cc(OC)c([N+](=O)[O-])c(-c2nn(C)c(=O)cc2-c2c(F)cccc2F)c1 [Compound 13, 5-(2,6-difluorophenyl)-6-(3,5-dimethoxy-2-nitrophenyl)-2-methyl-3(2H)-pyridazinone]							pest or weed control at 250 ppm (Zymoseptoria tritici; 250 ppm): 94%; pest or weed control at 250 ppm ([1]; 250 ppm): 99%; pest or weed control at 250 ppm ([2]; 250 ppm): 81%; pest or weed control at 250 ppm (Phakopsora pachyrhizi; 250 ppm): 63%; pest or weed control at 250 ppm (Botrytis cinerea; 250 ppm): 99%; pest or weed control at 250 ppm (Alternaria solani; 250 ppm): 9%; melting point: 174 to 178 °C
COc1cc(-c2nn(C)c(=O)cc2-c2c(F)cccc2F)cc(OC)c1Cl [Compound 14, 6-(4-chloro-3,5-dimethoxyphenyl)-5-(2,6-difluorophenyl)-2-methyl-3(2H)-pyridazinone]							pest or weed control at 250 ppm (Zymoseptoria tritici; 250 ppm): 88%; pest or weed control at 250 ppm ([1]; 250 ppm): 80%; pest or weed control at 250 ppm ([2]; 250 ppm): 0%; pest or weed control at 250 ppm (Phakopsora pachyrhizi; 250 ppm): 0%; pest or weed control at 250 ppm (Botrytis cinerea; 250 ppm): 0%; pest or weed control at 250 ppm (Alternaria solani; 250 ppm): 0%; melting point: 221 to 225 °C
COc1cc(OC)c(Cl)c(-c2nn(C)c(=O)cc2-c2ccc(F)cc2Cl)c1 [Compound 25, 6-(2-chloro-3,5-dimethoxyphenyl)-5-(2-chloro-4-fluorophenyl)-2-methyl-3(2H)-pyridazinone]							pest or weed control at 50 ppm (Zymoseptoria tritici; 50 ppm): 100%; pest or weed control at 50 ppm ([1]; 50 ppm): 100%; pest or weed control at 50 ppm ([2]; 50 ppm): 98%; pest or weed control at 50 ppm (Phakopsora pachyrhizi; 50 ppm): 94%; pest or weed control at 50 ppm (Botrytis cinerea; 50 ppm): 100%; pest or weed control at 50 ppm (Alternaria solani; 50 ppm): 85%; melting point: 121 to 125 °C
CCc1c(-c2c(F)cccc2F)c(-c2cc(OC)ccc2Cl)nn(C)c1=O [Compound 179, 6-(2-chloro-5-methoxyphenyl)-5-(2,6-difluorophenyl)-4-ethyl-2-methyl-3(2H)-pyridazinone]							pest or weed control at 50 ppm (Zymoseptoria tritici; 50 ppm): 100%; pest or weed control at 50 ppm ([1]; 50 ppm): 100%; pest or weed control at 50 ppm ([2]; 50 ppm): 100%; pest or weed control at 50 ppm (Phakopsora pachyrhizi; 50 ppm): 100%; pest or weed control at 50 ppm (Botrytis cinerea; 50 ppm): 94%; pest or weed control at 50 ppm (Alternaria solani; 50 ppm): 100%
CCc1c(-c2c(F)cccc2F)c(-c2cc(OC)cc(F)c2Cl)nn(C)c1=O [Compound 180]	100%	100%	100%	100%	99%	100%	
CCc1c(-c2c(F)cccc2F)c(-c2cc(OC)cc(F)c2Br)nn(C)c1=O [Compound 181]	98%	100%	100%	100%	94%	100%	
Cn1nc(-c2ccccc2Cl)c(-c2ccc(F)cc2Cl)c(O)c1=O [Compound 182]	0%	0%	0%	0%	0%	0%	
COc1ccc(Cl)c(-c2nn(C)c(=O)c(Cl)c2-c2ccccc2F)c1 [Compound 183]	100%	100%	96%	94%	98%	100%	
COc1ccc(Cl)c(-c2nn(C)c(=O)c(Cl)c2-c2ccccc2Cl)c1 [Compound 184]	100%	100%	96%	99%	96%	99%	
COc1ccc(Cl)c(-c2nn(C)c(=O)c(Cl)c2-c2ccc(F)cc2F)c1 [Compound 185]	100%	100%	99%	100%	96%	100%	
COc1ccc(Cl)c(-c2nn(C)c(=O)c(Cl)c2-c2ccc(C#N)cc2Cl)c1 [Compound 186]	99%	100%	97%	99%	90%	100%	
Cn1nc(-c2ccccc2)c(-c2c(F)cccc2F)cc1=O [Compound 191]							Test A disease control rating (Zymoseptoria tritici; 250 ppm): 72%; Test B disease control rating ([1]; 250 ppm): 9%; Test C disease control rating ([2]; 250 ppm): 99%; Test D disease control rating (Phakopsora pachyrhizi; 250 ppm): 0%; Test E disease control rating (Botrytis cinerea; 250 ppm): 99%; Test F disease control rating (Alternaria solani; 250 ppm): 0%
COc1ccc(-c2nn(C)c(=O)cc2-c2c(F)cccc2F)c(F)c1 [Compound 192]							Test A disease control rating (Zymoseptoria tritici; 250 ppm): 38%; Test B disease control rating ([1]; 250 ppm): 80%; Test C disease control rating ([2]; 250 ppm): 84%; Test D disease control rating (Phakopsora pachyrhizi; 250 ppm): 91%; Test E disease control rating (Botrytis cinerea; 250 ppm): 93%; Test F disease control rating (Alternaria solani; 250 ppm): 0%
Cn1nc(-c2ccccc2)c(-c2c(F)cccc2F)c(Cl)c1=O [Compound 193]							Test A disease control rating (Zymoseptoria tritici; 250 ppm): 97%; Test B disease control rating ([1]; 250 ppm): 100%; Test C disease control rating ([2]; 250 ppm): 100%; Test D disease control rating (Phakopsora pachyrhizi; 250 ppm): 61%; Test E disease control rating (Botrytis cinerea; 250 ppm): 100%; Test F disease control rating (Alternaria solani; 250 ppm): 99%
COc1cc(OC)c(Cl)c(-c2nn(C)c(=O)c(C)c2-c2c(F)cccc2F)c1 [Compound 194, 6-(2-chloro-3,5-dimethoxyphenyl)-5-(2,6-difluorophenyl)-2,4-dimethyl-3(2H)-pyridazinone]							pest or weed control at 50 ppm (Zymoseptoria tritici; 50 ppm): 100%; pest or weed control at 50 ppm ([1]; 50 ppm): 100%; pest or weed control at 50 ppm ([2]; 50 ppm): 100%; pest or weed control at 50 ppm (Phakopsora pachyrhizi; 50 ppm): 100%; pest or weed control at 50 ppm (Botrytis cinerea; 50 ppm): 100%; pest or weed control at 50 ppm (Alternaria solani; 50 ppm): 99%
CCn1nc(-c2cc(OC)cc(OC)c2Cl)c(-c2ccc(F)cc2Cl)cc1=O [Compound 202]	99%	68%	72%	44%	99%	0%	
COc1cc(-c2nn(C)c(=O)cc2-c2ccc(F)cc2Cl)cc(OC)c1Cl [Compound 203]	0%	0%	0%	0%	31%	0%	
COc1cc(C#N)cc(-c2cc(=O)n(C)nc2-c2cc(C#N)cc(OC)c2)c1 [Compound 204]	2%	0%	0%	39%	0%	0%	
COc1cc(F)c(Cl)c(-c2nn(C)c(=O)cc2-c2c(F)cccc2F)c1 [Compound 205]	100%	99%	98%	71%	99%	99%	
COc1cc(F)cc(-c2nn(C)c(=O)cc2-c2c(F)cccc2F)c1Cl [Compound 206]	97%	100%	93%	65%	100%	76%	
COc1ccc(Cl)c(C2=NN(C)C(=O)CC2c2c(F)cccc2F)c1 (centres unmarked) [Compound 207]	79%	68%	90%	0%	100%	0%	
COc1ccc(Cl)c(C2=NN(C)C(=O)C(C)C2c2c(F)cccc2F)c1 (centres unmarked) [Compound 208]	96%	100%	99%	0%	100%	100%	

From patent publication US20230095836A1, “SUBSTITUTED 5,6-DIPHENYL-3(2H)-PYRIDAZINONES FOR USE AS FUNGICIDES” (FMC Corporation, priority 2020, published 2023)
